“Also recorded” adds a separate entry of the source.
Key:
jejunum of C3H mice = conditions: mouse, in vivo, 2 mg/kg
Method: (§1) C3H female mice, 11-13 weeks of age, were used in this study.
(§2) The dynamic enteroscintigraphy with ^99m Tc-pertechnetate and the morphology studies were performed as described above in Example 1.

intestinal villi = assay type: in vivo, C3H mice; conditions: 9-AC (4 mg/kg), 3.5 days
Method: (§3) At 3.5 days after irradiation with 4, 6, 8 and 12.5 Gy and immediately upon completion of the absorption study, groups of 4-5 mice per radiation dose were killed by cervical dislocation and a 2-cm length of jejunum was removed for histological preparation. Intestinal segments were fixed in 10% neutral buffered formalin. Four transverse sections of intestine were prepared embedded into paraffin, cut at a thickness of 4 μm and stained with hematoxylin and eosin (H&E). Slides with tissue sections were examined with light microscopy under 400-power magnification. A total of 500 crypt cells per mouse form 12-16 complete crypts were scored as mitotic or apoptotic. The jejunum microcolony assay of H. R. Withers et al., J. Rad. Biol., 17, 261 (1970) was used to quantify jejunal crypt survival. Tissue sections were scored microscopically using 100-power magnification. Surviving crypts contained at least 10 tightly packed columnar epithelial cells located in the base of the crypt (discrete cell microcolonies). The number of surviving crypts/circumference of jejunum was plotted as a function of radiation dose in Gy.
as §1, §2

jejunal mucosa [1] = assay type: in vivo, C3H mice; conditions: 2 mg/kg 9-AC + 4 Gy TBI, day 3.5
Method: as §3, §1, §2

[2] = general statement; cited from earlier work
jejunal crypts = assay: Jejunal microcolony assay (surviving crypts); assay type: in vivo, C3H mice; conditions: 3.5 days, vs control
Method: as §3, §1, §2

[3] = Toxicity of 9-aminocamptothecin; conditions: single 2 mg/kg 9-AC intramuscular injection
[4] = tested on: intestine lumen / technetium pertechnetate active transport; conditions: mouse, in vivo; cited from earlier work
[5] = tested on: intestine lumen / technetium pertechnetate active transport
jejunal mucosa [6] = conditions: literature, cited from earlier work
jejunal mucosa [7] = conditions: intraluminal, after 12.5 Gy TBI
Method: To exclude a role of simple diffusion ("leakage") of the tracer through the irradiated GI mucosa studies of the intestinal permeability with ^67 Ga-citrate complex introduced into the jejunal lumen at 84 hours after exposure to 12.5 Gy were performed.
In order to evaluate if ^99m TcO^-4 absorption remains an active transport process in irradiated animals rather than passive diffusion or "leakage" phenomenon, studies were performed on irradiated gut permeability with ^67 Ga citrate complex.

mouse jejunal mucosa = assay: Dynamic enteroscintigraphy of jejunal absorption of ^99m TcO^-4 after total body irradiation; assay type: in vivo, C3Hf/Kam mice; conditions: for effect of irradiation on intestinal absorption: 4, 6, 8 and 12.5 Gy TBI
Description: The effect of irradiation on pertechnetate (^99m TcO^-4) absorption in the mouse jejunum was studied in situ following single acute total body irradiation (TBI) with 4 Gy, 6 Gy, 8 Gy, and 12.5 Gy. During irradiation, three unanesthetized mice were placed in a 20×20×3.5 cm air-ventilated plastic jig and exposed to a single-source ^60 Co irradiator (Theratron 780-C) at a dose rate of […], with open irradiation field and 71 cm SSD. This setting assured homogeneous dose distribution within ±3% error.
Four to five mice per irradiation dose of 4 Gy, 6 Gy, 8 Gy and 12.5 Gy per day after irradiation (6 Gy irradiated group) were studied for the intestinal absorption function. The mice were fasted overnight (waster ad libitum) and then anesthetized with 100 μL of 1.5 mg/g ketamine solution injected intraperitoneally. The procedure began with a short midline incision of the abdomen after onset of deep anesthesia, and a 3 cm segment of the upper jejunum was identified, ligated with cotton sutures and catheterized with 0.2 mm flexible plastic catheter.
Next, the abdomen incision was closed with cotton sutures and the mouse was positioned under the collimated detector so the 1.5 cm window of the collimator was viewed at the heart projection with 0.2 cm skin-to-collimator distance. A 100 μL physiologic solution containing 100 μCi of Na(^99m TcO4) was rapidly injected through the catheter into the proximal end of the isolated jejunal segment with complete filling of the entire segment.
The absorption rate of ^99m TcO^-4 from the site of injection into the circulation was recorded automatically by measuring the relative radioactivity build-up rate above the heart projection with the frequency of two measurements per second. The entire dynamic enteroscintigraphy procedure took about 15 minutes in control mice. The systemic absorption of the pertechnetate (^99m TcO^-4) was performed on a standard scintillation radiometer combined with a multichannel analyzer (Ludlum Measurements, Sweetwater, Tex.) to record the radiometry data in time-dependent fashion. The software ULTIMA-4 was used to receive the graphic imaging of the dynamic radiometry data.
Measured activity/time curves detected above the heart are mathematically modeled as exponential saturation of the form y(t)=y0+dy {1-exp[-k(t-t0)]}; where y(t) is the observed time-dependent radioactive counts above the heart; y0 is the observed activity at time of tracer introduction, t0; dy is the magnitude of the change in radioactive counts after tracer introduction; and k is the rate constant characteristic of the active transport of tracer through the intestinal wall into the systemic blood circulation. Analyses of tracer absorption kinetics by this expression allow precise statistical assessment of radiation-induced functional impairment of the jejunal active transport process.

[8] = literature, cited from earlier work

Compound: CC[C@@]1(O)C(=O)OCc2c1cc1n(c2=O)Cc2cc3c(N)cccc3nc2-1 [9-aminocamptothecin]
- mean rate of ^99m Tc-pertechnetate intestinal absorption (jejunum of C3H mice): significantly delayed
- cell loss on the intestinal villi (intestinal villi): maximal cell loss on the intestinal villi
- additive decrease in absorption vs number of apoptotic cells in the jejunal mucosa (jejunal mucosa [1]): correlates well with the number of apoptotic cells in the jejunal mucosa
- GI toxicity [2]: pronounced GI toxicity
- jejunal crypt survival (jejunal crypts; 9-AC (2 mg/kg) plus irradiation (4 Gy)): failed to show any difference in jejunal crypt survival
- jejunal crypt survival (jejunal crypts; 9-AC alone (2 mg/kg)): failed to show any difference in jejunal crypt survival
- 2 mg/kg intramuscular dose as fraction of LD10 [3]: 1/2

Compound: [K+].[O-][Cl+3]([O-])([O-])[O-] [KClO4, potassium perchlorate]
- competitive inhibition of technetium pertechnetate active transport [4]: known competitive inhibitor
- shift of the saturation point on the radioactivity/time curve ([5]; mouse, in vivo): shifted the saturation point on the radioactivity/time curve to the right without changes in the amount of the absorbed tracer

Compound: O=C([O-])CC(O)(CC(=O)[O-])C(=O)[O-].[67Ga+3] [^67 Ga-citrate]
- accumulation in the sites of lesion (jejunal mucosa [6]; inflammation or local hyperthermia): augments ^67 Ga-citrate accumulation in the sites of lesion
- crossing of the intestinal epithelial barrier (jejunal mucosa [6]; normal): normally does not cross the intestinal epithelial barrier
- jejunal mucosa permeability (jejunal mucosa [7]): jejunal mucosa stays impermeable

Compound: [131IH] [^131 Iodine, iodine-131]
- shape of intestinal absorption curve / active transport kinetics ([5]; mouse, in vivo): same shape of the ^99m TcO^-4 intestinal absorption curve was obtained

Compound: technetium pertechnetate [^99m TcO^-4]
- effect of irradiation on intestinal absorption (mouse jejunal mucosa): substantial dose-dependent decrease in the absorption function; also recorded: significantly decreases ^99m TcO^-4 jejunal absorption
- effect of irradiation on intestinal absorption (mouse jejunal mucosa; listed as 99m Technetium-pertechnetate): decreased in a dose-dependent fashion
- mean rate of the tracer absorption (mouse jejunal mucosa; 4 Gy TBI, 3.5 days after irradiation): 1.51±0.15
- time of minimal absorption after irradiation (mouse jejunal mucosa; 6 Gy TBI): 3.5 days
- time to return of absorption rate to a normal level (mouse jejunal mucosa; 6 Gy TBI): about 14 days
- effect of irradiation on absorption function at 24 hours (mouse jejunal mucosa; 6 Gy TBI, 24 hours after irradiation): significant decrease in the absorption function; also recorded: significant effect
- jejunal absorption, % of the control level (mouse jejunal mucosa; 12.5 Gy TBI, 3.5 days after irradiation, listed as 99m Technetium-pertechnetate): ~25 % of the control level
- correlation of decrease in absorption with cells per villus and irradiation dose (mouse jejunal mucosa; 3.5 days after 4 to 12.5 Gy): correlated with the numbers of cells per villus and the irradiation dose
- mean rate of the tracer absorption (mouse jejunal mucosa; control (no irradiation)): 1.35±0.25
- time of maximal reduction of absorption (mouse jejunal mucosa; independently of TBI doses used): 84 h
- metabolic activity [8]: low metabolic activity
- radiotoxicity [8]: one of the least radiotoxic nuclides
- γ-emission energy [8]: 140 keV
- half-life ([8]; radionuclide): 6 h
- intestinal absorption into the bloodstream ([5]; control mice): Rapid absorption
